Where a SMILES comes first, the peptide text is derived from it. The star is where a group is joined. Cbz = O=C(OCc1ccccc1)*; CH2F = FC*
How the values were obtained:
adult male Wistar rats = details: for lung lesions, histology / total lung collagens by hydroxyproline assay: 14 days post-bleomycin
Procedure: Adult male Wistar rats were given intratracheal instillations of 8 U/kg bleomycin sulfate (BLEO) or sterile saline. […] Lung fibrosis was assessed by picrosirius red (PR) quantitation of lung collagen and by hydroxyproline (HP) assay at 14 days after BLEO administration. At the same time point, fragmented DNA in lung epithelial cells was detected by in situ end labeling (ISEL).
Animals and Induction of Pulmonary Fibrosis. Forty adult male Wistar rats, 175-200 grams, were divided into four groups; three groups received a single intratracheal instillation of 8 units per kilogram of bleomycin sulfate (BLEO) in sterile saline. Two days before the administration of BLEO, one group received captopril in the drinking water at a concentration of 500 mg/liter. […] Control animals (NORM) received administrations of the vehicles only.
Immediately before sacrifice, animals were given intraperitoneal injections of sodium pentobarbital and the trachea was cannulated. The middle right lobe was ligated at the hilus, was excised distal to the ligation and was immediately frozen in liquid N2 for hydroxyproline assay of total collagen (see below). The remaining lung tissues were carefully removed and were instilled with 4% paraformaldehyde in PBS at 20 cm H2O constant pressure, then immersed in the same fixative for two hours. The fixed tissues were washed with PBS three times for 15 minutes and were then embedded in paraffin. Five-micron sections of lung were deparaffinized by passing through xylene, xylene:alcohol 1:1, 100% alcohol and 70% alcohol for 10 minutes each. Ethanol was removing by rinsing with distilled water.
In situ end-labeling (ISEL) of fragmented DNA. ISEL was conducted by a modification of the method of Mundle et al., Cell Death and Differentiation, 1: 117-122 (1994). Briefly, ethanol was removed from deparaffinized lung sections by rinsing in distilled water for at least 10 minutes. The slides were then placed in 3% hydrogen peroxide (Sigma Chemical, St. Louis, Mo.) for 30 minutes at 20° C., rinsed with PBS, and incubated with Proteinase K (Sigma Chemical, St. Louis, Mo.) in saline sodium citrate solution (SSC) (0.3 M NaCi and 30 mM sodium citrate in water, pH 7.0) for 15 minutes at 37° C. Samples were rinsed once in water, three times in 0.15 M PBS for 4 minutes each, and then incubated in SSC at 80° C. for 20 minutes. After four rinses in PBS and four rinses in Buffer A (50 mM Tris/HCl, 5 mM MgCl, 10 mM β-mercaptoethanol and 0.005% BSA in water, pH 7.5), the sections were incubated at 18° C. for two hours with ISEL solution (0.001 mM digoxigenin-dUTP, 20 U/ml DNA Polymerase 1 and 0.01 mM each of dATP, dCTP and dGTP in Buffer A). The sections were then rinsed thoroughly five times with Buffer A and three times with PBS. Detection of incorporated dUTP was achieved by incubation for two hours at 37° C. with AP-conjugated anti-digoxigenin (Boerhinger Mannheim, Indianapolis, Ind.) at a 1:400 dilution. Bound AP-antibody complexes were detected with the Fast Blue chromogen system and the sections were mounted with Fluoromount Solution (Southern Biotechnology, Birmingham, Ala.).
Identification of Collagen. Collagens were localized through staining of lung sections by the picrosirius red technique, see Pick et al., Am. J. Pathol. 134:365-371 (1989), which has absolute specificity for collagen. Briefly, sections deparaffinized with xylenes were rehydrated through a descending series of ethanols to distilled water. The hydrated sections were immersed in 0.2% aqueous phosphomolybdic acid for 2 minutes, rinsed in distilled water and then stained for 110 minutes with 0.1% Sirius Red F3BA (Pfal and Bauer, Stamford, Conn.) in saturated aqueous picric acid, pH 2.0. The sections were washed for 2 minutes in 0.01 N HCl, rinsed for 45 seconds in 70% ethanol, dehydrated in three changes of absolute alcohol, cleared in xylene and mounted in a nonaqueous mounting medium.

primary rat AEC = assay: Angiotensinogen-induced apoptosis in primary rat AEC; format: cell-based; details: ANG 5.0 uM; saralasin 50 ug/ml, lisinopril 500 ng/ml
Procedure: Cell Culture. […] J. Physiol. Suppl. […] J. Physiol. […] J. Physiol. […] J. Physiol. Suppl.
Detection of Apoptosis. […] J. Physiol. […] Assay of Annexin V binding by flow cytometry was performed essentially as described for human lung fibroblasts in Uhal, et al., Am. J. Physiol. […] Assay of Caspase-3 activity was performed on viable suspension cultures as reported in Uhal, et al., Am. J. Physiol.
For microscopy, cells were cultured on glass cover slips, incubated with test reagents and fixed with 70% ethanol. The fixed cells were immunolabeled overnight at 4° C. with monoclonal antibodies to cytokeratins 7 and 19 (Chemicon International, Temecula, Calif.), and then for one hour at 37° C. with anti-mouse IgG-rhodamine and DNAse-free RNAse (Boehringer Mannheim, Indianapolis, Ind.) The cover slips were then rinsed in distilled water three times and mounted under Fluoromount Solution (Southern Biotechnology Associates, Birmingham, Ala.) containing 5 ug/ml propidium iodide. Photomicroscopy was performed as described in Uhal, et al., Am. J. Physiol.

Structure (SMILES): C[C@H](CS)C(=O)N1CCC[C@H]1C(=O)O [captopril]
- inhibition of ISEL labeling in AEC (adult male Wistar rats; 14 days after BLEO): 99%
- inhibition of ISEL labeling in airway epithelial cells (adult male Wistar rats; 14 days after BLEO): 67%
- lung lesions, histology (adult male Wistar rats): much less extensive
- total lung collagens by hydroxyproline assay (adult male Wistar rats): inhibited lung collagen accumulation

Structure (SMILES): COC(=O)C[C@H](NC(=O)[C@H](C)NC(=O)[C@@H](NC(=O)OCc1ccccc1)C(C)C)C(=O)CF [ZVAD-fmk, N-benzylcarboxy-Val-Ala-Asp-[O-Me]-CH2F] (Cbz-Val-Ala-Asp(OMe)-CH2F)
- lung lesions, histology (adult male Wistar rats): much less extensive
- total lung collagens by hydroxyproline assay (adult male Wistar rats): inhibited lung collagen accumulation
- inhibition of accumulation of lung collagens (adult male Wistar rats; captopril 500 mg/liter drinking water, ZVAD-fmk 1 mg per kg daily i.p., 14 days after BLEO): 85%

Structure (SMILES): CNCC(=O)N[C@@H](CCCN=C(N)N)C(=O)N[C@H](C(=O)N[C@@H](Cc1ccc(O)cc1)C(=O)N[C@H](C(=O)N[C@@H](Cc1cnc[nH]1)C(=O)N1CCC[C@H]1C(=O)N[C@@H](C)C(=O)O)C(C)C)C(C)C [saralasin]
- inhibition of angiotensinogen-induced apoptosis (primary rat AEC): completely inhibited

Structure (SMILES): NCCCC[C@H](N[C@@H](CCc1ccccc1)C(=O)O)C(=O)N1CCC[C@H]1C(=O)O [lisinopril]
- inhibition of angiotensinogen-induced apoptosis (primary rat AEC): blocked

— patent US20030113330A1, “Methods for treating pulmonary fibrosis” (priority 1999, published 2003)
